Here are results for 18 molecules from patent US20230071840A1, “HETEROCYCLIC GLP-1 AGONISTS” (Gasherbrum Bio, Inc., priority 2020, published 2023).

Usually EC50 stands for the concentration giving half of the maximal effect.

SMILES strings stand for the structures. Bounds are passed on as bounds.

GLP-1 Receptor, sequence (P43220 24-463, species assumed): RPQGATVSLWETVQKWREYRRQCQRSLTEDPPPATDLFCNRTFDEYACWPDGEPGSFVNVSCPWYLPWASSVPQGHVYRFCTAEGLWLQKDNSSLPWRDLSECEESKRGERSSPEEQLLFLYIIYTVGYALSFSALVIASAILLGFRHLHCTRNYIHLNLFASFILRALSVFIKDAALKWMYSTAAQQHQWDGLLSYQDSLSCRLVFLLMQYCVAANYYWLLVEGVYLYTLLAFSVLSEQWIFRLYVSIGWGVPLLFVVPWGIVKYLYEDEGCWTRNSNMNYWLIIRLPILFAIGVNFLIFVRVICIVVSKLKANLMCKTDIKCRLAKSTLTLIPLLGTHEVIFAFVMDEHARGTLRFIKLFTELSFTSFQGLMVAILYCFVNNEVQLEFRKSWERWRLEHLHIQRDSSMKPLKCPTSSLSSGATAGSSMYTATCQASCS

The experiment addresses GLP-1 Receptor (Homo sapiens, UniProt P43220). Nature of the experiment: GLP-1R agonist cAMP stimulation assay (HEK293/GLP1R/CRE-LUC cells, cAMP dynamic 2 kit). Format: cell-based. Particulars: HEK293/CRE-Luc cell line stably expressing the GLP-1 Receptor; 30 min incubation at 37° C.; read-out: GLP1R cAMP Stimulation DR: EC50. As to the method: Activation of GLP-1 receptor is known to stimulate cyclic AMP (cAMP) production in cells which indicates primary coupling to the Gas subunit of the G protein heterotrimeric complex.
To optimize functional activity directed toward Gas coupling, a HEK293/CRE-Luc cell line developed by HDB stably expressing the GLP-1 Receptor was used. […] Seal the plate and incubate at 37° C. with 5% CO2 for 30 min.
After incubation the cAMP assay signal was generated using cAMP dynamic 2 Kit (Cisbio). 5 μL cAMP-d2 working solution was added to each well, followed with 5 μL Anti-cAMP antibody-cryptate working solution added to each well using ThermoFisher Multidrop Combi. Incubate at room temperature for 1 hour protected from light.
% Activity=[…]×(mean RLU of test sample−mean RLU of vehicle control)/(mean RLU of MAX control−mean RLU of vehicle control))
For the molecule `Cc1cn(Cc2ccc(Cl)cc2F)nc1OC1CCN(Cc2nc3ccc(C(=O)O)nc3n2C[C@@H]2CCO2)CC1` [Compound 133a, 2-{[4-({1-[(4-chloro-2-fluorophenyl)methyl]-4-methyl-1H-pyrazol-3-yl}oxy)piperidin-1-yl]methyl}-3-{[(2S)-oxetan-2-yl]methyl}-3H-imidazo[4,5-b]pyridine-5-carboxylic acid], the 50% effective concentration (EC50) was found to be 2.4 nM.

Turning to `O=C(O)c1ccc2nc(CN3CCC(Oc4cccc(Cc5ccccc5Cl)n4)CC3)n(C[C@@H]3CCO3)c2n1` [Compound 126a, (S)-2-((4-((6-(2-chlorobenzyl)pyridin-2-yl)oxy)piperidin-1-yl)methyl)-3-(oxetan-2-ylmethyl)-3H-imidazo[4,5-b]pyridine-5-carboxylic acid], the EC50 was 1 nM.

With `COC(C)Cn1c(CN2CCC(Oc3ccnc(Cc4ccc(Cl)cc4)n3)CC2)nc2ccc(C(=O)O)nc21` (stereo not drawn) [Compound 195, 2-((4-((2-(4-chlorobenzyl)pyrimidin-4-yl)oxy)piperidin-1-yl)methyl)-3-(2-methoxypropyl)-3H-imidazo[4,5-b]pyridine-5-carboxylic acid], the concentration for a half-maximal effect (EC50) was determined as 0.6 nM.

For the molecule `O=C(O)c1ccc2nc(Cc3ccc(Oc4ccnc(Cc5ccc(Cl)cc5)n4)cc3)n(C[C@@H]3CCO3)c2c1` [Compound 187a, 2-{[4-({2-[(4-chlorophenyl)methyl]pyrimidin-4-yl}oxy)phenyl]methyl}-1-{[(2S)-oxetan-2-yl]methyl}-1H-1,3-benzodiazole-6-carboxylic acid], the concentration for a half-maximal effect (EC50) was determined as 1.3 nM.

Consider `O=C(O)c1ccc2nc(CN3CCC(Oc4ccnc(Cc5ccc(Cl)cc5)c4)CC3)n(C[C@@H]3CCO3)c2n1` [Compound 159a, 2-{[4-({2-[(4-chlorophenyl)methyl]pyridin-4-yl}oxy)piperidin-1-yl]methyl}-3-{[(2S)-oxetan-2-yl]methyl}-3H-imidazo[4,5-b]pyridine-5-carboxylic acid], for which the EC50 turned out to be 2.3 nM.

With `O=C(O)c1ccc2nc(CN3CCC(Oc4ccnc(Cc5ccc(Cl)cc5F)n4)CC3)n(C[C@@H]3CCO3)c2c1` [Compound 160a, 2-{[4-({2-[(4-chloro-2-fluorophenyl)methyl]pyrimidin-4-yl}oxy)piperidin-1-yl]methyl}-1-{[(2S)-oxetan-2-yl]methyl}-1H-1,3-benzodiazole-6-carboxylic acid], the concentration for a half-maximal effect (EC50) came out at 0.12 nM.

For `O=C(O)c1ccc2nc(CN3CCC(Oc4nc(Cc5ccc(Cl)cc5F)ncc4F)CC3)n(C[C@@H]3CCO3)c2n1` [Compound 151a, (S)-2-((4-((2-(4-chloro-2-fluorobenzyl)-5-fluoropyrimidin-4-yl)oxy)piperidin-1-yl)methyl)-3-(oxetan-2-ylmethyl)-3H-imidazo[4,5-b]pyridine-5-carboxylic acid], the EC50 is 0.085 nM.

On to `O=C(O)c1ccc2nc(CN3CCC(n4ccc5ccc(Cc6ccc(Cl)cc6F)nc54)CC3)n(C[C@@H]3CCO3)c2n1` [Compound 140a, 2-[(4-{6-[(4-chloro-2-fluorophenyl)methyl]-1H-pyrrolo[2,3-b]pyridin-1-yl}piperidin-1-yl)methyl]-3-{[(2S)-oxetan-2-yl]methyl}-3H-imidazo[4,5-b]pyridine-5-carboxylic acid], for which the EC50 amounted to 1.2 nM.

Turning to `O=c1[nH]c(-c2ccc3nc(CN4CCC(Oc5ccnc(Cc6ccc(Cl)cc6)n5)CC4)n(C[C@@H]4CCO4)c3n2)no1` [Compound 198a, (S)-3-(2-((4-((2-(4-chlorobenzyl)pyrimidin-4-yl)oxy)piperidin-1-yl)methyl)-3-(oxetan-2-ylmethyl)-3H-imidazo[4,5-b]pyridin-5-yl)-1,2,4-oxadiazol-5(4H)-one], the concentration giving a half-maximal response (EC50) worked out at 0.7 nM.

Regarding `O=C(O)c1ccc2nc(CN3CCC(Oc4ccnc(Cc5ccc(Cl)cc5)n4)CC3)n(C[C@H]3CCOC3)c2n1` [Compound 196a, (R)-2-((4-((2-(4-chlorobenzyl)pyrimidin-4-yl)oxy)piperidin-1-yl)methyl)-3-((tetrahydrofuran-3-yl)methyl)-3H-imidazo[4,5-b]pyridine-5-carboxylic acid], the 50% effective concentration (EC50) came out at 1.3 nM.

`O=C(O)c1ccc2nc(CN3CCC(Oc4ccnc(Cc5ccc(Cl)c(Cl)c5)n4)CC3)n(C[C@@H]3CCO3)c2n1` [Compound 167a, 2-{[4-({2-[(3,4-dichlorophenyl)methyl]pyrimidin-4-yl}oxy)piperidin-1-yl]methyl}-3-{[(2S)-oxetan-2-yl]methyl}-3H-imidazo[4,5-b]pyridine-5-carboxylic acid]: the EC50 amounted to 0.13 nM.

For the molecule `O=C(O)c1ccc2nc(CN3CCC(Oc4cccc(Cc5ccc(Cl)cc5)n4)CC3)n(C[C@@H]3CCO3)c2n1` [Compound 124a, (S)-2-((4-((6-(4-chlorobenzyl)pyridin-2-yl)oxy)piperidin-1-yl)methyl)-3-(oxetan-2-ylmethyl)-3H-imidazo[4,5-b]pyridine-5-carboxylic acid], the EC50 was found to be 0.043 nM.

Consider `O=C(O)c1ccc2nc(CN3CCC(Oc4cccc(Cc5ccc(Cl)cc5)c4Cl)CC3)n(C[C@@H]3CCO3)c2n1` [Compound 158a, 2-[(4-{2-chloro-3-[(4-chlorophenyl)methyl]phenoxy}piperidin-1-yl)methyl]-3-{[(2S)-oxetan-2-yl]methyl}-3H-imidazo[4,5-b]pyridine-5-carboxylic acid], for which the EC50 is over 1000 nM.

In the case of `O=C(O)c1ccc2nc(C[C@H]3CC[C@H](Oc4ccnc(Cc5ccc(Cl)cc5)n4)CC3)n(C[C@@H]3CCO3)c2n1` [Compound 177a, 3-{[(2S)-oxetan-2-yl]methyl}-2-{[trans-4-({2-[(4-chlorophenyl)methyl]pyrimidin-4-yl}oxy)cyclohexyl]methyl}-3H-imidazo[4,5-b]pyridine-5-carboxylic acid], the EC50 came to 0.042 nM.

As for `O=C(O)c1ccc2nc(CN3CCC(Oc4cccc(CN5Cc6ccccc6C5=O)n4)CC3)n(C[C@@H]3CCO3)c2n1` [Compound 148a, 3-{[(2S)-oxetan-2-yl]methyl}-2-{[4-({6-[(1-oxo-2,3-dihydro-1H-isoindol-2-yl)methyl]pyridin-2-yl}oxy)piperidin-1-yl]methyl}-3H-imidazo[4,5-b]pyridine-5-carboxylic acid], the EC50 stood at 4.4 nM.

Take `Cc1cc(Cc2ccc(Cl)cc2)nc(OC2CCN(Cc3nc4ccc(C(=O)O)nc4n3C[C@@H]3CCO3)CC2)c1` [Compound 154a, 2-{[4-({6-[(4-chlorophenyl)methyl]-4-methylpyridin-2-yl}oxy)piperidin-1-yl]methyl}-3-{[(2S)-oxetan-2-yl]methyl}-3H-imidazo[4,5-b]pyridine-5-carboxylic acid]: the EC50 is 24 nM.

In the case of `O=C(O)c1ccc2nc(CN3CCC(Oc4cc(C(F)(F)F)cc(Cc5ccc(Cl)cc5)n4)CC3)n(C[C@@H]3CCO3)c2n1` [Compound 156a, 2-{[4-({6-[(4-chlorophenyl)methyl]-4-(trifluoromethyl)pyridin-2-yl}oxy)piperidin-1-yl]methyl}-3-{[(2S)-oxetan-2-yl]methyl}-3H-imidazo[4,5-b]pyridine-5-carboxylic acid], the EC50 amounted to 40 nM.

Take `O=C(O)c1ccc2nc(C[C@H]3CC[C@H](Oc4ccnc(Cc5ccc(Cl)cc5)n4)CC3)n(C[C@@H]3CCO3)c2c1` [Compound 176a, 1-{[(2S)-oxetan-2-yl]methyl)-2-{[trans-4-({2-[(4-chlorophenyl)methyl]pyrimidin-4-yl}oxy)cyclohexyl]methyl}-1H-1,3-benzodiazole-6-carboxylic acid]: the EC50 turned out to be 0.37 nM.
